Several values for one entry are separate records, joined by “and”; a condition that tells them apart may be missing. Identical values can stand only once. Inconclusive results and toxic doses are left out. Cut-off read from the data, not from the text of the source: active = T/C of 150% or more; inactive = T/C below 125%.
System: L1210 leukemia ip in BDF1 mice, survival T/C
Assay: NCI In Vivo Anticancer Drug Screen. Data for tumor model L1210 Leukemia (intraperitoneal) in B6D2F1 (BDF1) mice
Conditions: endpoint: mean survival time, higher = longer survival
How it was run: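 Transplanted-tumor mice were given test agent; controls received vehicle only. Survival readings from the two groups were divided (treated over control).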

[1] = dose: 100.0 mg/kg/injection, schedule: Q04DX002 (ip), vehicle: Klucel (hydroxypropylcellulose) (HPC)
[2] = dose: 200.0 mg/kg/injection, schedule: Q04DX002 (ip), vehicle: Klucel (hydroxypropylcellulose) (HPC)
[3] = dose: 400.0 mg/kg/injection, schedule: Q04DX002 (ip), vehicle: Klucel (hydroxypropylcellulose) (HPC)
[4] = dose: 100.0 mg/kg/injection, schedule: Q01DX001 (ip), vehicle: saline with Tween-80
[5] = dose: 200.0 mg/kg/injection, schedule: Q01DX001 (ip), vehicle: saline with Tween-80
[6] = dose: 400.0 mg/kg/injection, schedule: Q01DX001 (ip), vehicle: saline with Tween-80
[7] = dose: 50.0 mg/kg/injection, schedule: Q01DX009 (ip), vehicle: Klucel (hydroxypropylcellulose) (HPC)
[8] = dose: 100.0 mg/kg/injection, schedule: Q01DX009 (ip), vehicle: Klucel (hydroxypropylcellulose) (HPC)
[9] = dose: 200.0 mg/kg/injection, schedule: Q01DX009 (ip), vehicle: Klucel (hydroxypropylcellulose) (HPC)
[10] = dose: 8.0 mg/kg/injection, schedule: Q01DX015 (ip), vehicle: carboxymethylcellulose (CMC)
[11] = dose: 100.0 mg/kg/injection, schedule: Q01DX001 (ip), vehicle: saline
[12] = dose: 200.0 mg/kg/injection, schedule: Q01DX001 (ip), vehicle: saline
[13] = dose: 400.0 mg/kg/injection, schedule: Q01DX001 (ip), vehicle: saline
[14] = dose: 100.0 mg/kg/injection, schedule: Q04DX003 (ip), vehicle: saline with Tween-80
[15] = dose: 200.0 mg/kg/injection, schedule: Q04DX003 (ip), vehicle: saline with Tween-80
[16] = dose: 400.0 mg/kg/injection, schedule: Q04DX003 (ip), vehicle: saline with Tween-80
[17] = dose: 100.0 mg/kg/injection, schedule: Q01DX009 (ip), vehicle: saline with Tween-80
[18] = dose: 200.0 mg/kg/injection, schedule: Q01DX009 (ip), vehicle: saline with Tween-80
[19] = dose: 400.0 mg/kg/injection, schedule: Q01DX009 (ip), vehicle: saline with Tween-80
[20] = dose: 100.0 mg/kg/injection, schedule: Q04DX003 (ip), vehicle: Klucel (hydroxypropylcellulose) (HPC)
[21] = dose: 200.0 mg/kg/injection, schedule: Q04DX003 (ip), vehicle: Klucel (hydroxypropylcellulose) (HPC)
[22] = dose: 400.0 mg/kg/injection, schedule: Q04DX003 (ip), vehicle: Klucel (hydroxypropylcellulose) (HPC)
[23] = dose: 50.0 mg/kg/injection, schedule: Q01DX001 (ip), vehicle: saline

Measured: T/C

C=CCCCCCCCCC(=O)N/N=C/c1ccccc1OC
inactive: [1] 110 % of control | [2] 104 % of control | [3] 110 % of control

Cc1ccccc1C(O)c1ccccc1Cl (stereo not given)
inactive: [4] 109 % of control | [5] 102 % of control | [6] 94 % of control

CCN(CC)c1ccc(/C=N\N(C)C)cc1
inactive: [7] 97 % of control | [8] 101 % of control | [9] 106 % of control

COc1ccc(C(=C2CCCCC2)c2ccc(OC)cc2)cc1
inactive: [4] 95 % of control | [5] 94 % of control | [6] 88 % of control

CCCCCCN(CCCCCC)CCCCCC
inactive: [10] 97 % of control | dose: 16.0 mg/kg/injection, schedule: Q01DX015 (ip), vehicle: carboxymethylcellulose (CMC) 100 % of control | dose: 32.0 mg/kg/injection, schedule: Q01DX015 (ip), vehicle: carboxymethylcellulose (CMC) 102 % of control | dose: 64.0 mg/kg/injection, schedule: Q01DX015 (ip), vehicle: carboxymethylcellulose (CMC) 96 % of control | [11] 97 % of control | dose: 128.0 mg/kg/injection, schedule: Q01DX015 (ip), vehicle: carboxymethylcellulose (CMC) 97 % of control | [12] 106 % of control | [13] 100 % of control

CCOC(OCC)c1cc(=O)[nH]c(N)n1
inactive: [8] 101 % of control | [9] 97 % of control | dose: 400.0 mg/kg/injection, schedule: Q01DX009 (ip), vehicle: Klucel (hydroxypropylcellulose) (HPC) 96 % of control

CC[N+]1(C)CCC(CN2c3ccccc3Sc3ccccc32)C1 (stereo not given)
inactive: [14] 100 % of control | [15] 103 % of control | [16] 100 % of control

C=CCNc1n[nH]c(=S)s1
inactive: [17] 101 % of control | [18] 95 % of control | [19] 98 % of control

C/C(=N\N=C(/C)c1cccc(Br)c1)c1cccc(Br)c1
inactive: [20] 92 % of control | [21] 90 % of control | [22] 95 % of control

CCCS(=O)(=O)N1CCC(C)CC1
inactive: [1] 102 % of control | [2] 97 % of control | [3] 97 % of control

CCOC(=O)c1ccc(N2C(=O)c3cccc4cccc(c34)C2=O)c([N+](=O)[O-])c1
inactive: [14] 97 % of control | [15] 93 % of control | [16] 95 % of control

CC[N+](CC)(CC)CCCNC(c1ccccc1)C(Cl)(Cl)Cl (stereo not given)
inactive: dose: 12.5 mg/kg/injection, schedule: Q01DX001 (ip), vehicle: saline 95 % of control | dose: 25.0 mg/kg/injection, schedule: Q01DX001 (ip), vehicle: saline 97 % of control | [23] 95 % of control

CCC(C)(O)C#Cc1ccc(C)nc1 (stereo not given)
inactive: [14] 97 % of control | [15] 96 % of control | [16] 94 % of control

O=[N+]([O-])c1ncn(C2OC(CO)C(O)C2O)c1Br (stereo not given)
inactive: [23] 98 % of control | [11] 102 % of control | [12] 102 % of control | [13] 104 % of control

Cc1ccc2[nH]c(C)c(C3=CC(=O)c4ccccc4C3=O)c2c1
inactive: dose: 100.0 mg/kg/injection, schedule: Q01DX001 (ip), vehicle: other 97 % of control | dose: 200.0 mg/kg/injection, schedule: Q01DX001 (ip), vehicle: other 92 % of control

O=[N+]([O-])c1ccccc1C/C=C/CCl
inactive: dose: 100.0 mg/kg/injection, schedule: Q01DX001 (ip), vehicle: carboxymethylcellulose (CMC) 100 % of control | dose: 200.0 mg/kg/injection, schedule: Q01DX001 (ip), vehicle: carboxymethylcellulose (CMC) 96 % of control | dose: 400.0 mg/kg/injection, schedule: Q01DX001 (ip), vehicle: carboxymethylcellulose (CMC) 94 % of control

CC(=O)OCC1OC(OC(C)C)[CH]([Hg][S]Cc2ccccc2)C(OC(C)=O)C1OC(C)=O (stereo not given)
inactive: dose: 0.5 mg/kg/injection, schedule: Q01DX015 (ip), vehicle: carboxymethylcellulose (CMC) 102 % of control | dose: 1.0 mg/kg/injection, schedule: Q01DX015 (ip), vehicle: carboxymethylcellulose (CMC) 98 % of control | dose: 2.0 mg/kg/injection, schedule: Q01DX015 (ip), vehicle: carboxymethylcellulose (CMC) 104 % of control | dose: 4.0 mg/kg/injection, schedule: Q01DX015 (ip), vehicle: carboxymethylcellulose (CMC) 96 % of control and 108 % of control | [10] 88 % of control

CC(C)(C)NC(=O)Oc1ccc(Br)cc1Br
inactive: dose: 100.0 mg/kg/injection, schedule: Q01DX009 (ip), vehicle: saline 104 % of control | dose: 100.0 mg/kg/injection, schedule: Q04DX003 (ip), vehicle: saline 88 % of control | dose: 200.0 mg/kg/injection, schedule: Q01DX009 (ip), vehicle: saline 98 % of control | dose: 200.0 mg/kg/injection, schedule: Q04DX003 (ip), vehicle: saline 92 % of control | dose: 400.0 mg/kg/injection, schedule: Q01DX009 (ip), vehicle: saline 104 % of control | dose: 400.0 mg/kg/injection, schedule: Q04DX003 (ip), vehicle: saline 87 % of control

CCOC(=O)n1c(=O)[nH]c2ccccc21
inactive: dose: 87.5 mg/kg/injection, schedule: Q04DX003 (ip), vehicle: carboxymethylcellulose (CMC) 97 % of control | dose: 175.0 mg/kg/injection, schedule: Q04DX003 (ip), vehicle: carboxymethylcellulose (CMC) 91 % of control | dose: 350.0 mg/kg/injection, schedule: Q04DX003 (ip), vehicle: carboxymethylcellulose (CMC) 101 % of control

O=[N+]([O-])c1ccc(N2CCC(CCCC3CCN(c4ccc([N+](=O)[O-])cc4[N+](=O)[O-])CC3)CC2)c([N+](=O)[O-])c1
inactive: dose: 25.0 mg/kg/injection, schedule: Q01DX009 (ip), vehicle: Klucel (hydroxypropylcellulose) (HPC) 101 % of control | [7] 93 % of control | [8] 95 % of control and 105 % of control | [20] 98 % of control | [21] 97 % of control | [22] 104 % of control

OCCNCc1cccc(-c2ccccc2)c1O
inactive: [17] 93 % of control | [18] 87 % of control | [19] 101 % of control

CN(C)c1ccc(N=Nc2ccccc2)c2cccnc12
inactive: dose: 6.25 mg/kg/injection, schedule: Q01DX009 (ip), vehicle: DMSO 103 % of control | dose: 12.5 mg/kg/injection, schedule: Q01DX009 (ip), vehicle: DMSO 94 % of control | dose: 25.0 mg/kg/injection, schedule: Q01DX009 (ip), vehicle: DMSO 96 % of control | dose: 50.0 mg/kg/injection, schedule: Q01DX009 (ip), vehicle: DMSO 92 % of control | dose: 100.0 mg/kg/injection, schedule: Q01DX009 (ip), vehicle: DMSO 96 % of control | dose: 100.0 mg/kg/injection, schedule: Q04DX003 (ip), vehicle: DMSO 94 % of control | dose: 200.0 mg/kg/injection, schedule: Q04DX003 (ip), vehicle: DMSO 88 % of control | dose: 400.0 mg/kg/injection, schedule: Q04DX003 (ip), vehicle: DMSO 90 % of control

COC1OC2COCOC2C(OS(=O)(=O)c2ccc(C)cc2)C1OS(=O)(=O)c1ccc(C)cc1 (stereo not given)
inactive: [1] 100 % of control | [14] 89 % of control | [2] 95 % of control | [15] 86 % of control | [3] 92 % of control

[O-][n+]1ccnc(C(Cl)(Cl)Cl)c1Cl
inactive: dose: 0.78 mg/kg/injection, schedule: Q01DX009 (ip), vehicle: other 90 % of control | dose: 1.56 mg/kg/injection, schedule: Q01DX009 (ip), vehicle: other 107 % of control | dose: 3.12 mg/kg/injection, schedule: Q01DX009 (ip), vehicle: other 86 % of control

COC(=O)NC1c2ccccc2CCC1I (stereo not given)
inactive: dose: 50.0 mg/kg/injection, schedule: Q01DX009 (ip), vehicle: saline with Tween-80 94 % of control | [17] 90 % of control | [18] 92 % of control

Reference: PubChem BioAssay AID248 (DTP/NCI, 2004)
